# Data as given in patent US6815440B2, “Cyclic and heterocyclic N-substituted α-iminohydroxamic and -carboxylic acids” (Aventis Pharma Deutschland GmbH, priority 1995, dated 2004).
# Like-named read-outs stand apart in the source and are kept apart here.
# Assays:
# [1] = target: T1, catalytic domain of human stromelysine (Homo sapiens, UniProt P08254); assay: Enzyme inhibition, catalytic domain of human stromelysine (fluorogenic substrate); format: biochemical; details: read-out: Stromelysine IC 50
# T1 construct: enzymatic activity of the catalytic domains of human stomelysine and of neutrophil collagenase; made in house
# Method: (§1) Preparation and determination of the enzymatic activity of the catalytic domains of human stomelysine and of neutrophil collagenase.
# (§2) The two enzymes were prepared according to Ye et al., (Biochemistry 31 (1992) 11231-5). To measure the enzyme activity or enzyme inhibitor action, 70 μl of buffer solution and 10 μl of enzyme solution are incubated for 15 minutes with 10 μl of a 10% strength (v/v) aqueous dimethyl sulfoxide solution, which optionally contains the enzyme inhibitor. After addition of 10 μl of a 10% strength (v/v) aqueous dimethyl sulfoxide solution which contains 1 mmol/l of the substrate, the enzyme reaction is monitored by fluorescence spectroscopy (328 nm (ex)/393 nm(em)). The enzyme activity is shown as extinction increase/minute. […] The buffer solution contains 0.05% of Brij (Sigma, Deisenhofen, Germany) and also 0.1 mol/l of tris/HCl, 0.1 mol/l of NaCl, 0.01 mol/l of CaCl2 (pH=7.5) for the determination of the hydroxamic acids up to and including Example 33, or, for the determination of the carboxylic acids from Example 34, 0.1 mol/l of piperazine-N,N′-bis[2-ethanesulfonic acid] pH=6.5.
# (§3) The enzyme solution contains 5 μg/ml of one of the enzyme domains prepared according to Ye et al. The substrate solution contains 1 mmol/l of the fluorogenic substrate (7-methoxycoumarin-4-yl)acetyl-Pro-Leu-Gly-Leu-3-(2′,4′-dinitrophenyl)-L-2,3-diaminopropionyl-Ala-Arg-NH2 (Bachem, Heidelberg, Germany).
# [2] = target: T2, catalytic domain of neutrophil collagenase (Homo sapiens, UniProt P22894); assay: Enzyme inhibition, catalytic domain of neutrophil collagenase (fluorogenic substrate); format: biochemical; details: read-out: Neutrophil collagenase IC 50
# T2 construct: enzymatic activity of the catalytic domains of human stomelysine and of neutrophil collagenase; made in house
# Method: as §1, §2, §3
# [3] = carboxylic acids from Example 34, piperazine-N,N'-bis[2-ethanesulfonic acid] buffer pH=6.5
# [4] = hydroxamic acids up to and including Example 33, tris/HCl buffer pH=7.5
# T1 sequence (P08254 100-272 limits assumed): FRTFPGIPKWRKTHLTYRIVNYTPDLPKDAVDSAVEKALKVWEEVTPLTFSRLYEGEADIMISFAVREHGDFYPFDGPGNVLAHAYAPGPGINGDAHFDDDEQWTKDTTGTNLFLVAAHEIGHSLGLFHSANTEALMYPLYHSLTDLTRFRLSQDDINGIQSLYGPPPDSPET
# T2 sequence (P22894 100-262 limits assumed): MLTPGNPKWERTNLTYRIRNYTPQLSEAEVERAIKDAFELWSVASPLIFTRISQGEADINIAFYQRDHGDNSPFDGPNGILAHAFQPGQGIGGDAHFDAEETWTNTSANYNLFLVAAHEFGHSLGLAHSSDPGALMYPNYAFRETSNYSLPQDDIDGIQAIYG
"IC50 [1, 3]",melting point,"IC50 [2, 3]","IC50 [1, 4]","IC50 [2, 4]",Structure (SMILES)
200 nM,147 °C,9 nM,,,"O=C(O)[C@H]1Cc2ccccc2CN1S(=O)(=O)c1ccc(Oc2ccccc2)cc1 [41 (13b), R-2-(4-phenoxybenzenesulfonyl)-1,2,3,4-tetrahydroisoquinoline-3-carboxylic acid]"
,,,300 nM,,O=C(NO)C1Cc2ccccc2CN1S(=O)(=O)c1ccccc1 (centres unmarked) [Example 1]
,,,30 nM,2 nM,O=C(NO)[C@H]1Cc2ccccc2CN1S(=O)(=O)c1ccc(-c2ccc(Cl)cc2)cc1 [Example 3]
,,,700 nM,100 nM,CC(=O)Nc1ccc(S(=O)(=O)N2Cc3ccccc3CC2C(=O)NO)cc1 (centres unmarked) [Example 4]
,,,6000 nM,,CCOC(=O)Nc1cccc(S(=O)(=O)N2Cc3ccccc3CC2C(=O)NO)c1 (centres unmarked) [Example 5]
,,,500 nM,30 nM,CCOC(=O)Nc1ccc(S(=O)(=O)N2Cc3ccccc3CC2C(=O)NO)cc1 (centres unmarked) [Example 6]
,,,3000 nM,200 nM,COc1ccc(CC(=O)Nc2cccc(S(=O)(=O)N3Cc4ccccc4CC3C(=O)NO)c2)cc1 (centres unmarked) [Example 8]
,,,400 nM,70 nM,O=C(NO)[C@H]1Cc2ccccc2CN1S(=O)(=O)C1=CC2=CC=CCC2C=C1 (some centres unmarked) [Example 11]
,,,400 nM,200 nM,CN(C)c1cccc2c(S(=O)(=O)N3Cc4ccccc4C[C@@H]3C(=O)NO)cccc12 [Example 12]
,,,100 nM,10 nM,O=C(NO)[C@H]1Cc2ccccc2CN1S(=O)(=O)c1ccc2oc3ccccc3c2c1 [Example 15]
,,,100 nM,,O=C(NO)C1Cc2ccccc2CN1S(=O)(=O)CCc1ccccc1 (centres unmarked) [Example 17]
,,,2000 nM,300 nM,O=C(NO)C1Cc2ccccc2CN1S(=O)(=O)c1ccc(C(O)c2ccccc2)cc1 (centres unmarked) [Example 19]
,,,30 nM,8 nM,COc1ccc(S(=O)(=O)Oc2ccc3c(c2)CN(S(=O)(=O)c2ccc(OC)cc2)[C@@H](C(=O)NO)C3)cc1 [Example 22]
,,,80 nM,8 nM,COc1ccc(S(=O)(=O)N2Cc3cc([N+](=O)[O-])ccc3CC2C(=O)NO)cc1 (centres unmarked) [Example 23]
,166 °C,,60 nM,20 nM,"COc1ccc(S(=O)(=O)N2Cc3cc4c(cc3CC2C(=O)NO)OCO4)cc1 (centres unmarked) [Example 24, 2-(4-Methoxybenzenesulfonyl)-6,7-methylenedioxy-1,2,3,4-tetrahydroisoquinoline-3-hydroxamic acid]"
,,,400 nM,300 nM,"COc1ccc(S(=O)(=O)N2Cc3c(cc(OC)c(OC)c3OC)CC2C(=O)NO)cc1 (centres unmarked) [Example 25, 2-(4-Methoxybenzenesulfonyl)-6,7,8-trimethoxy-1,2,3,4-tetrahydroisoquinoline-3-hydroxamic acid]"
,,,6000 nM,300 nM,"O=C(NO)C1Cc2ccccc2CN1S(=O)(=O)N1CCOCC1 (centres unmarked) [Example 26, 2-(Morpholinosulfonyl)-1,2,3,4-tetrahydroisoquinoline-3-hydroxamic acid]"

"IC50 [1, 3]",melting point,"IC50 [2, 3]","IC50 [1, 4]","IC50 [2, 4]",Structure (SMILES)
,,,30 nM,4 nM,COc1ccc(S(=O)(=O)N2CCc3cc4c(cc3C2C(=O)NO)CCC4)cc1 (centres unmarked) [Example 27]
,142 °C,,2000 nM,700 nM,"COc1ccc(S(=O)(=O)N2c3ccccc3CC2C(=O)NO)cc1 (centres unmarked) [Example 28, 1-(4-Methoxybenzenesulfonyl)indoline-2-hydroxamic acid]"
,,,20 nM,3 nM,"COc1ccc(S(=O)(=O)N2Cc3[nH]c4ccccc4c3C[C@@H]2C(=O)NO)cc1 [Example 31, R-2-(4-methoxybenzenesulfonyl)-1,2,3,4-tetrahydro-9H-pyrido-(3,4-b)-indole-3-hydroxamic acid]"
,110 to 111 °C,,60 nM,,"O=C(NO)[C@H]1Cc2c([nH]c3ccccc23)CN1S(=O)(=O)c1ccc(Oc2ccccc2)cc1 [Example 32, R-2-(4-phenoxybenzenesulfonyl)-1,2,3,4-tetrahydro-9H-pyrido(3,4-b)-indole-3-hydroxamic acid]"
,125 °C (dec.),,300 nM,70 nM,"O=C(NO)[C@H]1Cc2c([nH]c3ccccc23)CN1S(=O)(=O)c1ccc(N2CCOCC2)cc1 [Example 33, R-2-(4-morpholinobenzenesulfonyl)-1,2,3,4-tetrahydro-9H-pyrido(3,4-b)-indole-3-hydroxamic acid]"
500 nM,205 °C,10 nM,,,O=C(O)[C@H]1Cc2ccccc2CN1S(=O)(=O)c1ccc(-c2ccccc2)cc1 [Example 34]
100 nM,207 to 209 °C,5 nM,,,O=C(O)[C@H]1Cc2ccccc2CN1S(=O)(=O)c1ccc(-c2ccc(Cl)cc2)cc1 [Example 35]
,,3000 nM,,,O=C(O)[C@@H]1Cc2ccccc2CN1S(=O)(=O)c1ccc(-c2ccc(Cl)cc2)cc1 [Example 36]
100 nM,122 to 135 °C,1 nM,,,CN(C)c1ccc(-c2ccc(S(=O)(=O)N3Cc4ccccc4C[C@@H]3C(=O)O)cc2)cc1.Cl [Example 39]
500 nM,167 to 168 °C,20 nM,,,"O=C(O)[C@H]1Cc2ccccc2CN1S(=O)(=O)c1ccc(Oc2ccc(Cl)cc2)cc1 [Example 42, R-2-[4-(4-chlorophenoxy)benzenesulfonyl]-1,2,3,4-tetrahydroisoquinoline-3-carboxylic acid]"
20000 nM,,200 nM,,,O=C(O)[C@H]1Cc2ccccc2CN1S(=O)(=O)c1ccc(Sc2ccccc2)cc1 [Example 43]
200 nM,,30 nM,,,O=C(O)[C@H]1Cc2ccccc2CN1S(=O)(=O)c1ccc(OCc2ccc(F)cc2)cc1 [Example 44]
3000 nM,,300 nM,,,O=C(c1ccccc1)c1ccc(S(=O)(=O)N2Cc3ccccc3C[C@@H]2C(=O)O)cc1 [Example 45]
3000 nM,218 to 219 °C,300 nM,,,O=C(O)[C@H]1Cc2ccccc2CN1S(=O)(=O)c1ccc2oc3ccccc3c2c1 [Example 46]
,211 to 213 °C,,,,O=C(O)[C@H]1Cc2ccccc2CN1S(=O)(=O)c1ccc(-c2nc3ccccc3o2)cc1 [Example 47]
,226 to 228 °C,,,,O=C(O)[C@H]1Cc2cc3c(cc2CN1S(=O)(=O)c1ccc(Oc2ccccc2)cc1)OCO3 [Example 54]
2000 nM,115 °C,100 nM,,,O=C(O)[C@H]1Cc2c([nH]c3ccccc23)CN1S(=O)(=O)c1ccc(Oc2ccccc2)cc1 [Example 57]

Structure (SMILES),"IC50 [1, 3]",melting point,"IC50 [2, 3]","IC50 [1, 4]","IC50 [2, 4]"
O=C(O)[C@H]1Cc2ccc([N+](=O)[O-])cc2CN1S(=O)(=O)c1ccc(-c2ccc(Cl)cc2)cc1 [Example 50],600 nM,,30 nM,,
O=C(O)[C@H]1Cc2cc([N+](=O)[O-])ccc2CN1S(=O)(=O)c1ccc(-c2ccc(Cl)cc2)cc1 [Example 51],500 nM,,20 nM,,
O=C(O)[C@H]1Cc2ccc([N+](=O)[O-])cc2CN1S(=O)(=O)c1ccc(-c2ccc(F)cc2)cc1 [Example 52],1000 nM,,40 nM,,
O=C(O)[C@H]1Cc2cc([N+](=O)[O-])ccc2CN1S(=O)(=O)c1ccc(-c2ccc(F)cc2)cc1 [Example 53],500 nM,,20 nM,,
